Test results reported in US20100152219A1, “PYRAZOLE DERIVATIVES AS INHIBITORS OF RECEPTOR TYROSINE KINASES” (ASTRAZENECA R&D, priority 2003, published 2010).

biological target: T1, human TrkB kinase (Homo sapiens, UniProt Q16620); assay: TrkB Assay Format (HTRF kinase assay); type: biochemical; settings: Trk inhibitory activity in the in-vitro TrkB HTRF assay
T1 construct: The intracellular domain of a HIS-tagged human TrkB kinase; His tag; made in house; host or cells: Sf9 insect cells
Procedure: TrkB kinase activity is being measured against its ability to phosphorylate synthetic tyrosine residues within a generic polypeptide substrate using homogenous time-resolved fluorescence (HTRF) technology. The intracellular domain of a HIS-tagged human TrkB kinase was expressed in SF9 cells and purified using standard nickel column chromatography. After the kinase is incubated with a biotinylated substrate and adenosine triphosphate (ATP) for 50 minutes at room temperature, the kinase reaction is stopped by the addition of 60 mM ethylenediaminetetraacetic acid (EDTA). The reaction is performed in 384 well microtitre plates and reaction products are detected with the addition of strepavidin-linked and phosphotyrosine-specific antibodies using the Tecan Ultra Evolution Microplate Fluometer after an additional 3-hour incubation at room temperature.

T1 sequence (Q16620 455-822 limits assumed): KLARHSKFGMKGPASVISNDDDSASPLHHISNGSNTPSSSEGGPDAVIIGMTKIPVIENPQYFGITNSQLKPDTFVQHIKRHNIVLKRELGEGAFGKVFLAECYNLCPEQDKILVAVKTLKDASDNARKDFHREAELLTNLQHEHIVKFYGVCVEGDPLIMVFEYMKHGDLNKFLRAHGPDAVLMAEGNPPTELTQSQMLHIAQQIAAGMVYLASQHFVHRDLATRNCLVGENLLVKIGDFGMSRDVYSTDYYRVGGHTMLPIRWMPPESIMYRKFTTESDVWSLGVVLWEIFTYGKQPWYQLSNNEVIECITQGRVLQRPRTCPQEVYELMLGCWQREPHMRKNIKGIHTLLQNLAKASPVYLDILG

| IC50 [nM] | Compound |
| --- | --- |
| 67 | C[C@H](Nc1nccc(Nc2cc(C3CC3)n[nH]2)n1)c1ccc(F)cc1 [Example 42, N^4-(3-Cyclopropyl-1H-pyrazol-5-yl)-N^2-[(1S)-1-(4-fluorophenyl)ethyl]pyrimidine-2,4-diamine] |
| 59 | OCC[C@H](Nc1nc(Nc2cc(C3CC3)[nH]n2)c2sccc2n1)c1ccc(F)cc1 [Example 64, (3S)-3-({4-[(5-Cyclopropyl-1H-pyrazol-3-yl)amino]thieno[3,2-d]pyrimidin-2-yl}amino)-3-(4-fluorophenyl)propan-1-ol] |
| 87 | COc1ccc2nc(N[C@@H](CO)c3ccc(F)cc3)nc(Nc3cc(C4CC4)[nH]n3)c2c1 [Example 80, (2R)-2-({4-[(5-Cyclopropyl-1H-pyrazol-3-yl)amino]-6-methoxyquinazolin-2-yl}amino)-2-(4-fluorophenyl)ethanol] |
